In EP2361611A2, “Aqueous sustained-release drug delivery system for highly water-soluble electrolytic drugs” (Upm Pharmaceuticals, Inc., priority 2005, dated 2006):

Experiment: Equilibrium binding study in a two-compartment dialysis cell, HPLC
Conditions: sodium alginate 0.877 g/L, 25°C
[1] = total drug concentration 4.97 M x 10^4
[2] = total drug concentration 5.47 M x 10^4
[3] = total drug concentration 5.96 M x 10^4
[4] = total drug concentration 6.96 M x 10^4
[5] = total drug concentration 7.95 M x 10^4
[6] = total drug concentration 8.95 M x 10^4
[7] = total drug concentration 9.94 M x 10^4
[8] = total drug concentration 14.91 M x 10^4
[9] = total drug concentration 19.88 M x 10^4
[10] = total drug concentration 24.86 M x 10^4
[11] = total drug concentration 30.40 M x 10^4
[12] = total drug concentration 41.20 M x 10^4
[13] = total drug concentration 50.70 M x 10^4

Description: The studies were performed with a two compartment plexiglass dialysis cell (Hollenbeck laboratory) and having a cellulose membrane (molecular weight cutoff of 6000 Daltons) Bel-Art Products (Pequannock, NJ) placed between the two cell compartments. […] The dialysis cell was shaken at 80 RPM in a thermostatic water bath at 25°C until equilibrium was reached (30 h). The solution was removed from the drug compartment and the concentrations of free drug and polymer-bound drug measured by high performance liquid chromatography ("HPLC").

For CC(C)NCC(O)COc1cccc2ccccc12 (stereo not drawn) [propranolol], which “Amount bound per gram of polymer” value [1] is on record?
Its value is 4.59 M x 10^4.

And the Bound drug concentration [1]?
Its Bound drug concentration is 4.03 M x 10^4.

What about the Free drug concentration [1] of the same compound?
Its Free drug concentration is 0.94 M x 10^4.

What about the “r/(Df)” value [1] of the same compound?
The value was 4.88 L/g.

What about the “Amount bound per gram of polymer” value [2] of the same compound?
Its value is 4.84 M x 10^4.

And the Bound drug concentration [2]?
Its Bound drug concentration is 4.25 M x 10^4.

And the Free drug concentration [2]?
The Free drug concentration was 1.22 M x 10^4.

And the “r/(Df)” value [2]?
The value was 3.97 L/g.

What about the “Amount bound per gram of polymer” value [3] of the same compound?
Its value is 5.16 M x 10^4.

And the Bound drug concentration [3]?
The Bound drug concentration was 4.53 M x 10^4.

What about the Free drug concentration [3] of the same compound?
Its Free drug concentration is 1.43 M x 10^4.

What about the “r/(Df)” value [3] of the same compound?
Its value is 3.60 L/g.

And the “Amount bound per gram of polymer” value [4]?
Its value is 5.86 M x 10^4.

What about the Bound drug concentration [4] of the same compound?
Its Bound drug concentration is 5.14 M x 10^4.

And the Free drug concentration [4]?
Its Free drug concentration is 1.82 M x 10^4.

What about the “r/(Df)” value [4] of the same compound?
Its value is 3.21 L/g.

What about the “Amount bound per gram of polymer” value [5] of the same compound?
The value was 6.23 M x 10^4.

And the Bound drug concentration [5]?
Its Bound drug concentration is 5.46 M x 10^4.

And the Free drug concentration [5]?
The Free drug concentration was 2.49 M x 10^4.

What about the “r/(Df)” value [5] of the same compound?
The value was 2.49 L/g.

What about the “Amount bound per gram of polymer” value [6] of the same compound?
The value was 6.12 M x 10^4.

What about the Bound drug concentration [6] of the same compound?
The Bound drug concentration was 5.37 M x 10^4.

What about the Free drug concentration [6] of the same compound?
The Free drug concentration was 3.57 M x 10^4.

And the “r/(Df)” value [6]?
Its value is 1.71 L/g.

What about the “Amount bound per gram of polymer” value [7] of the same compound?
The value was 6.66 M x 10^4.

What about the Bound drug concentration [7] of the same compound?
Its Bound drug concentration is 5.83 M x 10^4.

What about the Free drug concentration [7] of the same compound?
Its Free drug concentration is 4.10 M x 10^4.

What about the “r/(Df)” value [7] of the same compound?
The value was 1.62 L/g.

What about the “Amount bound per gram of polymer” value [8] of the same compound?
Its value is 8.61 M x 10^4.

What about the Free drug concentration [8] of the same compound?
The Free drug concentration was 7.36 M x 10^4.

And the “r/(Df)” value [8]?
Its value is 1.17 L/g.

What about the “Amount bound per gram of polymer” value [9] of the same compound?
The value was 9.81 M x 10^4.

What about the Bound drug concentration [9] of the same compound?
The Bound drug concentration was 8.60 M x 10^4.

And the Free drug concentration [9]?
Its Free drug concentration is 11.28 M x 10^4.

And the “r/(Df)” value [9]?
The value was 0.87 L/g.

What about the “Amount bound per gram of polymer” value [10] of the same compound?
The value was 10.73 M x 10^4.

And the Bound drug concentration [10]?
The Bound drug concentration was 9.41 M x 10^4.

And the Free drug concentration [10]?
The Free drug concentration was 15.45 M x 10^4.

And the “r/(Df)” value [10]?
The value was 0.60 L/g.

What about the “Amount bound per gram of polymer” value [11] of the same compound?
The value was 11.49 M x 10^4.

And the Bound drug concentration [11]?
Its Bound drug concentration is 10.08 M x 10^4.

And the Free drug concentration [11]?
The Free drug concentration was 20.32 M x 10^4.

What about the “r/(Df)” value [11] of the same compound?
Its value is 0.57 L/g.

And the “Amount bound per gram of polymer” value [12]?
The value was 12.37 M x 10^4.

And the Bound drug concentration [12]?
The Bound drug concentration was 10.84 M x 10^4.

What about the Free drug concentration [12] of the same compound?
Its Free drug concentration is 30.35 M x 10^4.

What about the “r/(Df)” value [12] of the same compound?
The value was 0.41 L/g.

What about the “Amount bound per gram of polymer” value [13] of the same compound?
Its value is 12.93 M x 10^4.

And the Bound drug concentration [13]?
Its Bound drug concentration is 11.34 M x 10^4.

What about the Free drug concentration [13] of the same compound?
The Free drug concentration was 39.36 M x 10^4.

What about the “r/(Df)” value [13] of the same compound?
Its value is 0.33 L/g.
